Test results as given in ChEMBL document CHEMBL3526017, “Predicting the drug interaction potential of AMG 853, a dual antagonist of the D-prostanoid and chemoattractant receptor-homologous molecule expressed on T helper 2 cells receptors” (Drug Metab Dispos, 2012).

What was measured:
[1] = target: Cytochrome P450 2D6 (Homo sapiens, UniProt P10635); assay: Inhibition of CYP2D6 in human liver microsomes using dextromethorphan as substrate after 5 to 30 mins by LC-MS/MS analysis; type: ADME
[2] = target: T1, Cytochrome P450 2B6 (Homo sapiens, UniProt P20813); assay: Inhibition of CYP2B6 in human liver microsomes using bupropion as substrate after 5 to 30 mins by LC-MS/MS analysis; type: ADME
T1 sequence (P20813 whole entry): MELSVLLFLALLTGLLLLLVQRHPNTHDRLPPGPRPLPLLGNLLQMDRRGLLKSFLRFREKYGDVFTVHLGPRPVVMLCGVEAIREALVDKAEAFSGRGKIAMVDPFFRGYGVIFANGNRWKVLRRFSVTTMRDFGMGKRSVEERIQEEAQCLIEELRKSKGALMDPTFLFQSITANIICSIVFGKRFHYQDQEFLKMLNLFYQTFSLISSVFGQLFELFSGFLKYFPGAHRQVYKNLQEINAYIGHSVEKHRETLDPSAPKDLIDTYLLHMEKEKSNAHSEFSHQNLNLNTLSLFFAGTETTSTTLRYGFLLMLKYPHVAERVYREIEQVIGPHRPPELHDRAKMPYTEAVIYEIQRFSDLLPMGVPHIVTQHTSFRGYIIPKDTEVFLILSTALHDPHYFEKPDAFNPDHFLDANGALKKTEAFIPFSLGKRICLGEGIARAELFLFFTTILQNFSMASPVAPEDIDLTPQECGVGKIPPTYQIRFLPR

[3] = target: T2, Cytochrome P450 1A2 (Homo sapiens, UniProt P05177); assay: Inhibition of CYP1A2 in human liver microsomes using phenacetin as substrate after 5 to 30 mins by LC-MS/MS analysis; type: ADME
T2 sequence (P05177 whole entry): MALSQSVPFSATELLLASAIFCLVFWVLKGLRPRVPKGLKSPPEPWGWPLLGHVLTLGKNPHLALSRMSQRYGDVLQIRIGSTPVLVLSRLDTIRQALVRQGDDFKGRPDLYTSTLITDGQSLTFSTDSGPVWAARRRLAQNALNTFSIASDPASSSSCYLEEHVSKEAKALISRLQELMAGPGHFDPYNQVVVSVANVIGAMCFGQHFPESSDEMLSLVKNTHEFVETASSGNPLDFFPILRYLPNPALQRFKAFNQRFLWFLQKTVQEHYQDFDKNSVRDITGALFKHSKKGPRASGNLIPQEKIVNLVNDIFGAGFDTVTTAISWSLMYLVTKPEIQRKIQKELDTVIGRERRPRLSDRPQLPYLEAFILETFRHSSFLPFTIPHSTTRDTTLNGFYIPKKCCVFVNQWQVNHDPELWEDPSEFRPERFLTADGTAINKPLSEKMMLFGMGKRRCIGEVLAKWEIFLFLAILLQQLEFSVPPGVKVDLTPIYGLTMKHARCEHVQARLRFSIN

[4] = target: T3, UDP-glucuronosyltransferase 1A3 (Homo sapiens, UniProt P35503); assay: Drug metabolism assessed as human recombinant UGT1A3-mediated compound formation treated with AMG 853 at 10 uM after 30 mins by LC-MS/MS analysis; type: ADME; details: recombinant enzyme, 0.5 h
T3 sequence (P35503 whole entry): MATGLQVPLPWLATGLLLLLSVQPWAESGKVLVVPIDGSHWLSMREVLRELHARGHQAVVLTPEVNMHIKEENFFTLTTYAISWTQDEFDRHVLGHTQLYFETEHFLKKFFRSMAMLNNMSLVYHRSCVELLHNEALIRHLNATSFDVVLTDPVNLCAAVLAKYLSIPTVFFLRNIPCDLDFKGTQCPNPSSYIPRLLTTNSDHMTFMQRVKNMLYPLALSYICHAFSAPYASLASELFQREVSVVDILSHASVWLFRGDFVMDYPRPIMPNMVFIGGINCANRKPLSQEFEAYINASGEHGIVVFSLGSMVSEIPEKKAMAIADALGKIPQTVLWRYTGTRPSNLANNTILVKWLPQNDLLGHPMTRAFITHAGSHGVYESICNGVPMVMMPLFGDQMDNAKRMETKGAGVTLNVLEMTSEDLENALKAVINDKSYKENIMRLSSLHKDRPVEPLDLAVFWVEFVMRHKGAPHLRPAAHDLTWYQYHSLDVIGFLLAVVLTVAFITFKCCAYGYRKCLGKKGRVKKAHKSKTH

[5] = target: Cytochrome P450 2C19 (Homo sapiens, UniProt P33261); assay: Inhibition of CYP2C19 in human liver microsomes using (S)-Mephenytoin as substrate after 5 to 30 mins by LC-MS/MS analysis; type: ADME
Sequence of Cytochrome P450 2C19 (P33261 whole entry): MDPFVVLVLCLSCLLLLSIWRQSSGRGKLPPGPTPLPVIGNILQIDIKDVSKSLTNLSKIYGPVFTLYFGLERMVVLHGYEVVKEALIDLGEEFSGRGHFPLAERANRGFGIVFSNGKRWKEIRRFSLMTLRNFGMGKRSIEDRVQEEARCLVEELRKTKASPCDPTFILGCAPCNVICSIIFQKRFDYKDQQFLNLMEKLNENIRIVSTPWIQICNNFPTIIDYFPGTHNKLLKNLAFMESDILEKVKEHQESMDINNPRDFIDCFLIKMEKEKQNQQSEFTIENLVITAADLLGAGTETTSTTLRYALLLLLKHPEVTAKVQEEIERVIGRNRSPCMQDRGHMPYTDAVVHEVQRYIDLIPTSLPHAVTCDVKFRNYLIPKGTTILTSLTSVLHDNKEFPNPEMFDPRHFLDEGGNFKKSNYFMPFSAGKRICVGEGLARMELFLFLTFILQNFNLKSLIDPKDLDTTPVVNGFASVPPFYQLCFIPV

[6] = target: Cytochrome P450 2C9 (Homo sapiens, UniProt P11712); assay: Inhibition of CYP2C9 in human liver microsomes using diclofenac as substrate after 5 to 30 mins by LC-MS/MS analysis; type: ADME
Sequence of Cytochrome P450 2C9 (P11712 whole entry): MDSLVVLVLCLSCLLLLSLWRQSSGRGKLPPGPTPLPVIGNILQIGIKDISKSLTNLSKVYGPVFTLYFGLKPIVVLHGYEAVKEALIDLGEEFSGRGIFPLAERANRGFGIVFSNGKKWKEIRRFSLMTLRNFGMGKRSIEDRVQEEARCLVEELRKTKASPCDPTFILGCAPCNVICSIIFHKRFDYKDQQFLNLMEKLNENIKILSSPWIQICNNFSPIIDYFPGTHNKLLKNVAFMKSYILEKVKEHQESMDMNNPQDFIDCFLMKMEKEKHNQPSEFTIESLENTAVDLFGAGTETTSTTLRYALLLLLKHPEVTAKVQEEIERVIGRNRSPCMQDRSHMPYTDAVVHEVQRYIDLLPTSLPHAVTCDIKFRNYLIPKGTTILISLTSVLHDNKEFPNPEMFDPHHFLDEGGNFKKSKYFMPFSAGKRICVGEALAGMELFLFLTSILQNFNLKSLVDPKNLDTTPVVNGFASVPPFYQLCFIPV

[7] = target: Cytochrome P450 2E1 (Homo sapiens, UniProt P05181); assay: Inhibition of CYP2E1 in human liver microsomes using chlorzoxazone as substrate after 5 to 30 mins by LC-MS/MS analysis; type: ADME
Sequence of Cytochrome P450 2E1 (P05181 whole entry): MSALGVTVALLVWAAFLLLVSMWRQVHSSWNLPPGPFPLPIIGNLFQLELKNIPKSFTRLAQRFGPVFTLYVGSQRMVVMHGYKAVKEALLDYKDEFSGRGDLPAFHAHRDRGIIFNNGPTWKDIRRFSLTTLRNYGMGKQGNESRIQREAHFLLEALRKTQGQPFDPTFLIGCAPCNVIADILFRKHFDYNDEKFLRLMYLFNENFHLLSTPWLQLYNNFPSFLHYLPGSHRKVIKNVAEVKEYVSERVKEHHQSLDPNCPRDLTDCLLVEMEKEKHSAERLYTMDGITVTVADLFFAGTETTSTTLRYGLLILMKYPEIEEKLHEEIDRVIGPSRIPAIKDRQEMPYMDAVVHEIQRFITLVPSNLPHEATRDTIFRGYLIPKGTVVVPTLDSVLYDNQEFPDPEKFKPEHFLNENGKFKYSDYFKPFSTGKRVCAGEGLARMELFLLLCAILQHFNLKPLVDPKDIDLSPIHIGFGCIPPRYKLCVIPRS

[8] = target: T4, Cytochrome P450 2C8 (Homo sapiens, UniProt P10632); assay: Biphasic inhibition of CYP2C8 in human liver microsomes assessed as montelukast 36-hydroxylation after 20 mins by LC-MS/MS analysis; type: ADME
T4 sequence (P10632 whole entry): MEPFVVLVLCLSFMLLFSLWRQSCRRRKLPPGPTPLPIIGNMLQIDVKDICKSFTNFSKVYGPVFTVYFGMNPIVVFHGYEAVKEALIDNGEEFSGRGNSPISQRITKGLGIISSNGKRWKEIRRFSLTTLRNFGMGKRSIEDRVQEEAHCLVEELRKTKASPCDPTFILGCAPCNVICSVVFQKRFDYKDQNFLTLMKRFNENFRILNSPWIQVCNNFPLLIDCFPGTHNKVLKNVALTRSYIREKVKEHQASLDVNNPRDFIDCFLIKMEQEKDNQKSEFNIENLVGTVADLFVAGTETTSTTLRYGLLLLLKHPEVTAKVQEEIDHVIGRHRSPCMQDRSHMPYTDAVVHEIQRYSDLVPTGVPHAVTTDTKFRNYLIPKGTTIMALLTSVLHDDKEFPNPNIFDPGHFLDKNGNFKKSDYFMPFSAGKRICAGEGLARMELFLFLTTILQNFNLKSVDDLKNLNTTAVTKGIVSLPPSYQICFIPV

[9] = target: T5, Cytochrome P450 3A4 (Homo sapiens, UniProt P08684); assay: Inhibition of CYP3A4 in human liver microsomes using midazolam as substrate after 5 to 30 mins by LC-MS/MS analysis; type: ADME
T5 sequence (P08684 whole entry): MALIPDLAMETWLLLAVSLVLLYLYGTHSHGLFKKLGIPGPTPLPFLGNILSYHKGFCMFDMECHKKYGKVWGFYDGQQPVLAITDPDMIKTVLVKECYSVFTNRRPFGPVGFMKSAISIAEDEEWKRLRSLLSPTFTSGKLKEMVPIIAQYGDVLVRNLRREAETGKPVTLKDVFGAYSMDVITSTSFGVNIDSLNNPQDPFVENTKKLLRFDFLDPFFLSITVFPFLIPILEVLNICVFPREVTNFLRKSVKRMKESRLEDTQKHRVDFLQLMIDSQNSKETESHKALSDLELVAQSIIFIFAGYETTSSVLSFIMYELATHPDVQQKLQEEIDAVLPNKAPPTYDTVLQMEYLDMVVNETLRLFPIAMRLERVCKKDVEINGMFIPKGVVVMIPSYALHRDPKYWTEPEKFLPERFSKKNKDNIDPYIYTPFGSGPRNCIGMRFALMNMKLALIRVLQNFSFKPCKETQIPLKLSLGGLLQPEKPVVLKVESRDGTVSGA

[10] = target: T5, Cytochrome P450 3A4; assay: Inhibition of CYP3A4 in human liver microsomes using testosterone as substrate after 5 to 30 mins by LC-MS/MS analysis; type: ADME
[11] = AUC (0 to infinity) in healthy human at 50 mg, po; type: ADME, organism-based; parameters: dose 50 mg, route oral, time infinity; details: plasma
[12] = Drug metabolism in human liver microsomes assessed as […]-mediated (2S,3S,4S,5R,6S)-6-(2-(4-(4-(tert-butylcarbamoyl)-2-(2-chloro-4-cyclopropylphenylsulfonamido)phenoxy)-5-chloro-2-fluorophenyl)acetoxy)-3,4,5-trihydroxytetrahydro-2H-pyran-2-carboxylic acid formation after 15 mins by LC-MS/MS analysis in presence of UDPGA and NADPH; type: ADME; details: 0.25 h

Sequence of Cytochrome P450 2D6 (P10635 whole entry): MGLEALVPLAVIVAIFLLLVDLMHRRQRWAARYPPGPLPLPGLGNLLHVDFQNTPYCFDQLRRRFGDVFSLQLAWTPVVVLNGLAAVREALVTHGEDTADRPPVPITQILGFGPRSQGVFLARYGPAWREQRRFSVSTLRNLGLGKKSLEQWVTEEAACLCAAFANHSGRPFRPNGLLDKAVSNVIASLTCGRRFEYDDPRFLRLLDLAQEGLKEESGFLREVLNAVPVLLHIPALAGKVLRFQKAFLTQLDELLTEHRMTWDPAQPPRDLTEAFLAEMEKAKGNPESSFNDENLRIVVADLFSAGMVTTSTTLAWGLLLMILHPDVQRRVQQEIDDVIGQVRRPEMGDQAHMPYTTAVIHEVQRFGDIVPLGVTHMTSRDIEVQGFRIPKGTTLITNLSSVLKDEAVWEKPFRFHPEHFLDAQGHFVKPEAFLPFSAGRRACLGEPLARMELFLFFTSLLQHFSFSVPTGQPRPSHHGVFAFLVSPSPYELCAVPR

Structure (SMILES) | Ki [1] [µM] | Ki [2] [µM] | Ki [3] [µM] | Drug metabolism [4] | Ki [5] [µM] | Ki [6] [µM] | Ki [7] [µM] | Ki [8] [µM] | Ki [9] [µM] | Ki [10] [µM] | IC50 [1] [µM] | IC50 [2] [µM] | IC50 [3] [µM] | IC50 [5] [µM] | IC50 [6] [µM] | AUC(0-inf) [11] [ng·h/mL] | Drug metabolism [12] | IC50 [7] [µM] | IC50 [9] [µM] | IC50 [10] [µM]
CC(C)(C)NC(=O)c1ccc(Oc2cc(F)c(CC(=O)O[C@@H]3O[C@H](C(=O)O)[C@@H](O)[C@H](O)[C@H]3O)cc2Cl)c(NS(=O)(=O)c2ccc(C3CC3)cc2Cl)c1 | > 30 | > 30 | > 30 | metabolite_detected | > 30 | > 30 | > 30 | 7.3 | > 30 | > 30 |  |  |  |  |  |  |  |  |  | 
CC(C)(C)NC(=O)c1ccc(Oc2cc(F)c(CC(=O)O)cc2Cl)c(NS(=O)(=O)c2ccc(C3CC3)cc2Cl)c1 [VIDUPIPRANT] | > 30 | > 30 | > 30 |  | > 30 | > 30 | > 30 | 1.8 | > 30 | > 30 | ≥ 30 | ≥ 30 | ≥ 30 | ≥ 30 | ≥ 30 | 671 | metabolite_not_detected | ≥ 30 | ≥ 30 | ≥ 30
